What is called solubility (mole fraction) is solubility expressed as the solute's share of all molecules.

The results in this text go back to BigSolDB 2.1.

For the data set the following is noted: in water.

For `O=C(O)c1ccc(O)c(O)c1`, the solubility (mole fraction) worked out at 0.00212 (293.15 K); 0.00223 (298.15 K); 0.00229 (303.15 K); 0.00238 (308.15 K); 0.00244 (313.15 K); 0.00256 (318.15 K).

For the compound `COc1cc(C(=O)O)cc(OC)c1O`, the solubility (mole fraction) was 0.000376 (293.15 K); 0.000522 (298.15 K); 0.000646 (303.15 K); 0.000794 (308.15 K); 0.000915 (313.15 K); 0.00105 (318.15 K).

Regarding `COc1cc(C=O)ccc1O`, the solubility (mole fraction) runs as follows: (293.15 K) 0.000989; (298.15 K) 0.00117; (303.15 K) 0.00151; (308.15 K) 0.00182; (313.15 K) 0.0021; (318.15 K) 0.00239.

Regarding `O=C(O)c1cc(O)c(O)c(O)c1`, the solubility (mole fraction) runs as follows: (293.15 K) 0.00117; (298.15 K) 0.00122; (303.15 K) 0.00128; (308.15 K) 0.00131; (313.15 K) 0.00138; (318.15 K) 0.00143.
